biological target: T1, recombinant glucosyltransferase domain of C. difficile Toxin B/TcdB (Clostridioides difficile, UniProt P18177); test: biochemical
T1 construct: 6-His (C); purchased R&D Systems 6246-GT
T1 sequence (P18177 1-543): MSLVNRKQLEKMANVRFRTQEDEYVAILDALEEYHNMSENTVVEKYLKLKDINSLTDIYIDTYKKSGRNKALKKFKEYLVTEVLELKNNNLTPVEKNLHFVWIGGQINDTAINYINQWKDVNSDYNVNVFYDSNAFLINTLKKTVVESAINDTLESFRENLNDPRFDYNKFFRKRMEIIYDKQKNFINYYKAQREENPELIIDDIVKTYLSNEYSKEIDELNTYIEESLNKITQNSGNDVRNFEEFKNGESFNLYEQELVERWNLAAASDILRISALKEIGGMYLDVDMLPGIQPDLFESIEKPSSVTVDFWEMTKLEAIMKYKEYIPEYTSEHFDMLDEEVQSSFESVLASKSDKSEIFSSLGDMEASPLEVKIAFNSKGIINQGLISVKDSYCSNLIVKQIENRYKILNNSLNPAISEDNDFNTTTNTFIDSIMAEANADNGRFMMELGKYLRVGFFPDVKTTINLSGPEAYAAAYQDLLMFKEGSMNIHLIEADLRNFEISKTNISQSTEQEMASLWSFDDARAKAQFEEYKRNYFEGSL

For Cc1cccnc1NC(=O)c1ccc(CN2C(=O)c3ccc(Cl)cc3NC(=O)[C@H]2Cc2cccnc2)cc1 [Example 4k, (R)-4-((8-chloro-2,5-dioxo-3-(pyridin-3-ylmethyl)-2,3-dihydro-1H-benzo[e][1,4]diazepin-4(5H)-yl)methyl)-N-(3-methylpyridin-2-yl)benzamide], which IC50 is on record?
Its IC50 is 100 to 999 nM.

COc1ccc2c(c1)NC(=O)[C@@H](Cc1ccc(Cl)c(Cl)c1)N(Cc1ccc(C(=O)Nc3ccccn3)cc1)C2=O [Example 4l, (R)-4-((3-(3,4-dichlorobenzyl)-8-methoxy-2,5-dioxo-2,3-dihydro-1H-benzo[e][1,4]diazepin-4(5H)-yl)methyl)-N-(pyridin-2-yl)benzamide] was tested. Which IC50 did it give?
The IC50 was < 100 nM.

Which IC50 does the source give for CN(C(=O)c1ccc(CN2C(=O)c3ccc(Cl)cc3NC(=O)[C@H]2Cc2cccnc2)cc1)c1ccccn1 [Example 4m, (R)-4-((8-chloro-2,5-dioxo-3-(pyridin-3-ylmethyl)-2,3-dihydro-1H-benzo[e][1,4]diazepin-4(5H)-yl)methyl)-N-methyl-N-(pyridin-2-yl)benzamide] here?
Its IC50 is 100 to 999 nM.

With Cc1ccc(NC(=O)c2ccc(CN3C(=O)c4ccc(Cl)cc4NC(=O)[C@H]3Cc3cccnc3)cc2)nc1 [Example 4n, (R)-4-((8-chloro-2,5-dioxo-3-(pyridin-3-ylmethyl)-2,3-dihydro-1H-benzo[e][1,4]diazepin-4(5H)-yl)methyl)-N-(5-methylpyridin-2-yl)benzamide] as the compound, how does the IC50 read?
Its IC50 is < 100 nM.

How did the IC50 turn out when Cc1cccc(NC(=O)c2ccc(CN3C(=O)c4ccc(Cl)cc4NC(=O)[C@H]3Cc3cccnc3)cc2)n1 [Example 4o, (R)-4-((8-chloro-2,5-dioxo-3-(pyridin-3-ylmethyl)-2,3-dihydro-1H-benzo[e][1,4]diazepin-4(5H)-yl)methyl)-N-(6-methylpyridin-2-yl)benzamide] was run?
Its IC50 is 10000 to 35000 nM.

How did the IC50 turn out when COc1ccc2c(c1)NC(=O)[C@@H](Cc1cccnc1)N(Cc1ccc(C(=O)Nc3ccccn3)cc1)C2=O [Example 4p, (R)-4-((8-methoxy-2,5-dioxo-3-(pyridin-3-ylmethyl)-2,3-dihydro-1H-benzo[e][1,4]diazepin-4(5H)-yl)methyl)-N-(pyridin-2-yl)benzamide] was run?
Its IC50 is < 100 nM.

How did the IC50 turn out when O=C(Nc1ccccn1)c1ccc(CN2C(=O)c3ccc(F)cc3NC(=O)[C@H]2Cc2ccc(Cl)c(Cl)c2)cc1 [Example 4q, (R)-4-((3-(3,4-dichlorobenzyl)-8-fluoro-2,5-dioxo-2,3-dihydro-1H-benzo[e][1,4]diazepin-4(5H)-yl)methyl)-N-(pyridin-2-yl)benzamide] was run?
The IC50 was 100 to 999 nM.

How did the IC50 turn out when O=C(Nc1cc(Cl)ccn1)c1ccc(CN2C(=O)c3ccc(Cl)cc3NC(=O)[C@H]2Cc2cccnc2)cc1 [Example 4r, (R)-4-((8-chloro-2,5-dioxo-3-(pyridin-3-ylmethyl)-2,3-dihydro-1H-benzo[e][1,4]diazepin-4(5H)-yl)methyl)-N-(4-chloropyridin-2-yl)benzamide] was run?
The IC50 was < 100 nM.

Cc1ccnc(NC(=O)c2ccc(CN3C(=O)c4ccc(Cl)cc4NC(=O)[C@H]3Cc3cccnc3)cc2)c1 [Example 4s, (R)-4-((8-chloro-2,5-dioxo-3-(pyridin-3-ylmethyl)-2,3-dihydro-1H-benzo[e][1,4]diazepin-4(5H)-yl)methyl)-N-(4-methylpyridin-2-yl)benzamide] was tested. Which IC50 did it give?
The IC50 was < 100 nM.

How did the IC50 turn out when O=C(Nc1ccncn1)c1ccc(CN2C(=O)c3ccc(Cl)cc3NC(=O)[C@H]2Cc2cccnc2)cc1 [Example 4t, (R)-4-((8-chloro-2,5-dioxo-3-(pyridin-3-ylmethyl)-2,3-dihydro-1H-benzo[e][1,4]diazepin-4(5H)-yl)methyl)-N-(pyrimidin-4-yl)benzamide] was run?
The IC50 was < 100 nM.

With O=C(Nc1ccccn1)c1ccc(CN2C(=O)c3ccc(Cl)cc3NC(=O)[C@H]2Cc2ccncc2)cc1 [Example 4u, (R)-4-((8-chloro-2,5-dioxo-3-(pyridin-4-ylmethyl)-2,3-dihydro-1H-benzo[e][1,4]diazepin-4(5H)-yl)methyl)-N-(pyridin-2-yl)benzamide] as the compound, how does the IC50 read?
The IC50 was 100 to 999 nM.

With O=C(Nc1ccccn1)c1ccc(CN2C(=O)c3ccc(Cl)cc3NC(=O)[C@H]2Cc2ccccn2)cc1 [Example 4v, (R)-4-((8-chloro-2,5-dioxo-3-(pyridin-2-ylmethyl)-2,3-dihydro-1H-benzo[e][1,4]diazepin-4(5H)-yl)methyl)-N-(pyridin-2-yl)benzamide] as the compound, how does the IC50 read?
The IC50 was < 100 nM.

Which IC50 does the source give for O=C(Nc1ccccn1)c1ccc(CN2C(=O)c3ccc(Cl)cc3NC(=O)[C@H]2Cc2ccccc2Cl)cc1 [Example 4w, (R)-4-((8-chloro-3-(2-chlorobenzyl)-2,5-dioxo-2,3-dihydro-1H-benzo[e][1,4]diazepin-4(5H)-yl)methyl)-N-(pyridin-2-yl)benzamide] here?
Its IC50 is < 100 nM.

For Cc1ccc(NC(=O)c2ccc(CN3C(=O)c4ccc(Cl)cc4NC(=O)[C@H]3Cc3ccccn3)cc2)nc1 [Example 4x, (R)-4-((8-chloro-2,5-dioxo-3-(pyridin-2-ylmethyl)-2,3-dihydro-1H-benzo[e][1,4]diazepin-4(5H)-yl)methyl)-N-(5-methylpyridin-2-yl)benzamide], which IC50 is on record?
The IC50 was < 100 nM.

C[C@@H]1C(=O)Nc2cc(Cl)ccc2C(=O)N1Cc1ccc(C(=O)N2CCc3cccnc32)cc1 [Example 4y, (R)-8-chloro-4-(4-(2,3-dihydro-1H-pyrrolo[2,3-b]pyridine-1-carbonyl)benzyl)-3-methyl-3,4-dihydro-1H-benzo[e][1,4]diazepine-2,5-dione] was tested. Which IC50 did it give?
The IC50 was < 100 nM.

Which IC50 does the source give for C[C@@H]1C(=O)Nc2cc(Cl)ccc2C(=O)N1Cc1ccc(C(=O)Nc2ccccn2)cc1 [Example 4z, (R)-4-((8-chloro-3-methyl-2,5-dioxo-2,3-dihydro-1H-benzo[e][1,4]diazepin-4(5H)-yl)methyl)-N-(pyridin-2-yl)benzamide] here?
Its IC50 is < 100 nM.

COc1cnc(NC(=O)c2ccc(CN3C(=O)c4ccc(Cl)cc4NC(=O)[C@H]3Cc3ccccn3)cc2)nc1 [Example 5a, (R)-4-((8-chloro-2,5-dioxo-3-(pyridin-2-ylmethyl)-2,3-dihydro-1H-benzo[e][1,4]diazepin-4(5H)-yl)methyl)-N-(5-methoxypyrimidin-2-yl)benzamide] was tested. Which IC50 did it give?
Its IC50 is < 100 nM.

Which IC50 does the source give for O=C(Nc1ncccc1F)c1ccc(CN2C(=O)c3ccc(Cl)cc3NC(=O)[C@H]2Cc2ccccn2)cc1Cl [Example 5ac, (R)-2-chloro-4-((8-chloro-2,5-dioxo-3-(pyridin-2-ylmethyl)-2,3-dihydro-1H-benzo[e][1,4]diazepin-4(5H)-yl)methyl)-N-(3-fluoropyridin-2-yl)benzamide] here?
The IC50 was < 100 nM.

Which IC50 does the source give for Cc1cnc(NC(=O)[C@H]2CC[C@H](CN3C(=O)c4ccc(Cl)cc4NC(=O)[C@H]3Cc3ccccn3)CC2)nc1 [Example 5ad, (1R,4r)-4-(((R)-8-chloro-2,5-dioxo-3-(pyridin-2-ylmethyl)-2,3-dihydro-1H-benzo[e][1,4]diazepin-4(5H)-yl)methyl)-N-(5-methylpyrimidin-2-yl)cyclohexanecarboxamide] here?
The IC50 was < 100 nM.

How did the IC50 turn out when Cc1cnc(NC(=O)c2ccc(CN3C(=O)c4ccc(Cl)cc4NC(=O)[C@H]3Cc3ccccn3)cc2C)nc1 [Example 5ag, (R)-4-((8-chloro-2,5-dioxo-3-(pyridin-2-ylmethyl)-2,3-dihydro-1H-benzo[e][1,4]diazepin-4(5H)-yl)methyl)-2-methyl-N-(5-methylpyrimidin-2-yl)benzamide] was run?
The IC50 was < 100 nM.

For O=C(Nc1ccc(F)cn1)c1ccc(CN2C(=O)c3ccc(Cl)cc3NC(=O)[C@H]2Cc2ccccn2)cc1Cl [Example 5ao, (R)-2-chloro-4-((8-chloro-2,5-dioxo-3-(pyridin-2-ylmethyl)-2,3-dihydro-1H-benzo[e][1,4]diazepin-4(5H)-yl)methyl)-N-(5-fluoropyridin-2-yl)benzamide], which IC50 is on record?
Its IC50 is < 100 nM.
